pIC50: −log10 of the molar value. Where a name gives a salt, the structure may show the parent alone.
Molecular target: human FGFR-1 (Homo sapiens, UniProt P11362)
Experiment: FGFR-1 high ATP kinase assay (TR-FRET)
Format: biochemical
Conditions: 2 mM ATP, 15 min pre-incubation with enzyme, compounds of the invention

Sequence of human FGFR-1 (P11362 22-822 limits assumed): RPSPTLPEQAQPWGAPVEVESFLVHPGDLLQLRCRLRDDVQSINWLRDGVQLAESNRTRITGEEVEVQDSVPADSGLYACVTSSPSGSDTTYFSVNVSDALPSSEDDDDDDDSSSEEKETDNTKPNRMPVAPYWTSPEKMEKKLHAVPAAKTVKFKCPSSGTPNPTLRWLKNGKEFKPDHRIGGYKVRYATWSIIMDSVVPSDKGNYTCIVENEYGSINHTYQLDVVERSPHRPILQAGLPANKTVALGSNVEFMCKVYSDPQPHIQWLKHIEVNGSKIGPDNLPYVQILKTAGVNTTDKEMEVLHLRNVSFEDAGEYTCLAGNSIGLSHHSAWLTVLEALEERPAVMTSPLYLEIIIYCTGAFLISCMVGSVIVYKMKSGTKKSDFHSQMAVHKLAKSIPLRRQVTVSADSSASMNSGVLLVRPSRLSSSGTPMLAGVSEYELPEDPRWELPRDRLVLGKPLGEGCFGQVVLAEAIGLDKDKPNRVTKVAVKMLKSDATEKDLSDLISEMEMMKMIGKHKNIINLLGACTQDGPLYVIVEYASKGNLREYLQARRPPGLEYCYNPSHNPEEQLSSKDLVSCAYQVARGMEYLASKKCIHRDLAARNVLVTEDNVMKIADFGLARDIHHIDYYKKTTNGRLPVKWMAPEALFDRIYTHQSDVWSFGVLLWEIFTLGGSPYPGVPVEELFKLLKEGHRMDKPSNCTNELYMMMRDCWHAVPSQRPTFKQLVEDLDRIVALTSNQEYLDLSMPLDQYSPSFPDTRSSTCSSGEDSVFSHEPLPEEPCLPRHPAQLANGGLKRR

| Compound | pIC50 (dihydrochloride) | pIC50 |
| --- | --- | --- |
| CCOCc1c(-c2cc3cc(C)cc(OC)c3s2)c2c(N)ncnn2c1CN[C@@H]1CCNC1=O [Example 7, (3R)-3-({[4-Amino-6-(ethoxymethyl)-5-(7-methoxy-5-methyl-1-benzothiophen-2-yl)pyrrolo-[2,1-f][1,2,4]triazin-7-yl]methyl}amino)pyrrolidin-2-one dihydrochloride] | 8.38 | – |
| CCOCc1c(-c2cc3cc(C)cc(OC)c3s2)c2c(N)ncnn2c1CN[C@@H]1CCNC1=O [Example 8, (3R)-3-({[4-Amino-6-(ethoxymethyl)-5-(7-methoxy-5-methyl-1-benzothiophen-2-yl)pyrrolo-[2,1-f][1,2,4]triazin-7-yl]methyl}amino)pyrrolidin-2-one] | – | 8.03 |
| CCOCc1c(-c2cc3cc(C)cc(OC)c3s2)c2c(N)ncnn2c1CN1CCOCC1 [Example 10, 6-(Ethoxymethyl)-5-(7-methoxy-5-methyl-1-benzothiophen-2-yl)-7-(morpholin-4-ylmethyl)pyrrolo[2,1-f][1,2,4]triazin-4-amine] | – | 7.90 |
| COc1cc(C)cc2cc(-c3c(CO)c(CN4CCNCC4)n4ncnc(N)c34)sc12 [Example 12, [4-Amino-5-(7-methoxy-5-methyl-1-benzothiophen-2-yl)-7-(piperazin-1-ylmethyl)pyrrolo[2,1-f]-[1,2,4]triazin-6-yl]methanol bis(formiate)] | – | 8.48 |
| COCc1c(-c2cc3cc(C)cc(OC)c3s2)c2c(N)ncnn2c1CN1CCNCC1 [Example 17, 6-(Methoxymethyl)-5-(7-methoxy-5-methyl-1-benzothiophen-2-yl)-7-(piperazin-1-ylmethyl)pyrrolo[2,1-f][1,2,4]triazin-4-amine formiate] | – | 9.05 |
| CCCCOCc1c(-c2cc3cc(C)cc(OC)c3s2)c2c(N)ncnn2c1CN1CCNCC1 [Example 23, 6-(Butoxymethyl)-5-(7-methoxy-5-methyl-1-benzothiophen-2-yl)-7-(piperazin-1-ylmethyl)pyrrolo-[2,1-f][1,2,4]triazin-4-amine formiate] | – | 7.75 |
| CCCOCc1c(-c2cc3cc(C)cc(OC)c3s2)c2c(N)ncnn2c1CN1CCNCC1 [Example 24, 5-(7-Methoxy-5-methyl-1-benzothiophen-2-yl)-7-(piperazin-1-ylmethyl)-6-(propoxymethyl)pyrrolo[2,1-f][1,2,4]triazin-4-amine bis(formiate)] | – | 8.89 |
| COc1cc(C)cc2cc(-c3c(COC(C)C)c(CN4CCNCC4)n4ncnc(N)c34)sc12 [Example 27, 6-(Isopropoxymethyl)-5-(7-methoxy-5-methyl-1-benzothiophen-2-yl)-7-(piperazin-1-ylmethyl)pyrrolo[2,1-f][1,2,4]triazin-4-amine formiate] | – | 8.89 |
| COC(=O)COCc1c(-c2cc3cc(C)cc(OC)c3s2)c2c(N)ncnn2c1CN1CCNCC1 [Example 31, Methyl{[4-amino-5-(7-methoxy-5-methyl-1-benzothiophen-2-yl)-7-(piperazin-1-ylmethyl)pyrrolo[2,1-f][1,2,4]triazin-6-yl]methoxy}acetate] | – | 8.82 |
| CNCc1c(-c2cc3cc(C)cc(OC)c3s2)c2c(N)ncnn2c1CN1CCNCC1 [Example 36, 5-(7-Methoxy-5-methyl-1-benzothiophen-2-yl)-6-[(methylamino)methyl]-7-(piperazin-1-ylmethyl)pyrrolo[2,1-f][1,2,4]triazin-4-amine trihydrochloride] | – | 8.52 |
| CCN(CC)Cc1c(-c2cc3cc(C)cc(OC)c3s2)c2c(N)ncnn2c1CN1CCNCC1 [Example 43, 6-[(Diethylamino)methyl]-5-(7-methoxy-5-methyl-1-benzothiophen-2-yl)-7-(piperazin-1-ylmethyl)pyrrolo[2,1-f][1,2,4]triazin-4-amine trihydrochloride] | – | 8.07 |
| COc1cc(C)cc2cc(-c3c(-c4cnco4)c(CN4CCNCC4)n4ncnc(N)c34)sc12 [Example 61, 5-(7-Methoxy-5-methyl-1-benzothiophen-2-yl)-6-(1,3-oxazol-5-yl)-7-(piperazin-1-ylmethyl)pyrrolo[2,1-f][1,2,4]triazin-4-amine trihydrochloride] | – | 9.30 |
| CCOCc1c(-c2cc3cc(C)cc(OC)c3s2)c2c(N)ncnn2c1CN1CCNC1=O [Example 87, 1-{[4-Amino-6-(ethoxymethyl)-5-(7-methoxy-5-methyl-1-benzothiophen-2-yl)pyrrolo[2,1-f]-[1,2,4]triazin-7-yl]methyl}imidazolidin-2-one] | – | 7.85 |
| COCc1c(-c2cc3cccc(OC)c3s2)c2c(N)ncnn2c1CN1CCNC(=O)C1 [Example 88, 4-{[4-Amino-5-(7-methoxy-1-benzothiophen-2-yl)-6-(methoxymethyl)pyrrolo[2,1-f][1,2,4]triazin-7-yl]methyl}piperazin-2-one] | – | 7.10 |
| CCOCc1c(-c2cc3cc(C)cc(OC)c3s2)c2c(N)ncnn2c1CN[C@H]1CCNC1=O [Example 93, (3S)-3-({[4-Amino-6-(ethoxymethyl)-5-(7-methoxy-5-methyl-1-benzothiophen-2-yl)pyrrolo[2,1-f]-[1,2,4]triazin-7-yl]methyl}amino)pyrrolidin-2-one] | – | 8.26 |
| CCOCc1c(-c2cc3cc(C)cc(OC)c3s2)c2c(N)ncnn2c1CN1CCCCO1 [Example 94] | – | 7.09 |

| Compound | pIC50 (dihydrochloride) | pIC50 |
| --- | --- | --- |
| CCOCc1c(-c2cc3cc(C)cc(OC)c3s2)c2c(N)ncnn2c1CN1CCCC1 [Example 96] | – | 7.26 |
| CCOCc1c(-c2cc3cc(C)cc(OC)c3s2)c2c(N)ncnn2c1CN1CC(O)C1 [Example 97] | – | 7.79 |
| CCOCc1c(-c2cc3cc(C)cc(OC)c3s2)c2c(N)ncnn2c1CN1CCN(C2CC2)CC1 [Example 100] | – | 7.26 |
| CCOCc1c(-c2cc3cc(C)cc(OC)c3s2)c2c(N)ncnn2c1CN1CCC(O)C1 (centres unmarked) [Example 101] | – | 7.51 |
| CCOCc1c(-c2cc3cc(C)cc(OC)c3s2)c2c(N)ncnn2c1CN1CNC(=O)C1 [Example 104] | – | 8.25 |
| CCOCc1c(-c2cc3cc(C)cc(OC)c3s2)c2c(N)ncnn2c1CN1CCNC(=O)C1C (centres unmarked) [Example 105] | – | 8.06 |
| CCOCc1c(-c2cc3cc(C)cc(OC)c3s2)c2c(N)ncnn2c1C(N)=O [Example 109] | – | 8.08 |
| CCOCc1c(-c2cc3cc(C)cc(OC)c3s2)c2c(N)ncnn2c1C(=O)NC [Example 110] | – | 7.76 |
| CCNC(=O)c1c(COCC)c(-c2cc3cc(C)cc(OC)c3s2)c2c(N)ncnn12 [Example 111] | – | 7.57 |
| CCOCc1c(-c2cc3cc(C)cc(OC)c3s2)c2c(N)ncnn2c1C(=O)N1CCCCO1 [Example 112] | – | 7.38 |
| CCOCc1c(-c2cc3cc(C)cc(OC)c3s2)c2c(N)ncnn2c1C(=O)N1CCC(C(N)=O)CC1 [Example 113] | – | 7.28 |
| CCOCc1c(-c2cc3cc(C)cc(OC)c3s2)c2c(N)ncnn2c1C(=O)NC1CC1 [Example 115] | – | 7.60 |
| CCOCc1c(-c2cc3cc(C)cc(OC)c3s2)c2c(N)ncnn2c1C(=O)N[C@H]1CCNC1=O [Example 116] | – | 8.43 |
| CCOCc1c(-c2cc3cc(C)cc(OC)c3s2)c2c(N)ncnn2c1C(=O)N1CCC(O)C1 (centres unmarked) [Example 118] | – | 8.17 |
| CCOCc1c(-c2cc3cc(C)cc(OC)c3s2)c2c(N)ncnn2c1C(=O)N1CC(F)(F)C1 [Example 122] | – | 7.72 |
| CCOCc1c(-c2cc3cc(C)cc(OC)c3s2)c2c(N)ncnn2c1C(=O)N1CCS(=O)(=O)CC1 [Example 123] | – | 7.60 |
